Assay results: ChEMBL document CHEMBL3870340, “Cytotoxic activity, apoptosis induction and structure-activity relationship of 8-OR-2-aryl-3,4-dihydroisoquinolin-2-ium salts as promising anticancer agents” (Bioorg Med Chem Lett, 2017)

Assays:
[1] = Antiproliferative activity against human MKN45 cells at 20 uM after 48 hrs by MTT assay relative to control; type: functional; settings: MKN-45, 48 h, read-out: GI
[2] = Antiproliferative activity against human NB4 cells at 5 uM after 48 hrs by MTT assay relative to control; type: functional; settings: NB-4, 48 h, read-out: GI
[3] = Cytotoxicity against human MKN45 cells assessed as decrease in cell viability after 48 hrs by MTT assay; type: functional, cell-based; settings: MKN-45, 48 h
[4] = Cytotoxicity against human NB4 cells assessed as decrease in cell viability after 48 hrs by MTT assay; type: functional, cell-based; settings: NB-4, 48 h
[5] = Cytotoxicity against primary porcine fetal kidney cells assessed as decrease in cell viability after 48 hrs by MTT assay; type: toxicity, cell-based; settings: pig (Sus scrofa)
[6] = Cytotoxicity against primary goat fetal fibroblast assessed as decrease in cell viability after 48 hrs by MTT assay; type: toxicity; settings: goat (Capra hircus), primary goat fetal fibroblasts

COc1cccc2c1C=[N+](c1ccc(Cl)cc1)CC2
inhibition of growth at 20 µM [1]: 12.3% | inhibition of growth at 5 µM [2]: 23.1%

COc1cccc2c1C=[N+](c1ccccc1F)CC2
inhibition of growth at 20 µM [1]: 67.5% | IC50 [3]: 6.64 µM | inhibition of growth at 5 µM [2]: 42% | IC50 [4]: 4.55 µM

COc1cccc2c1C=[N+](c1cccc(Cl)c1)CC2
inhibition of growth at 20 µM [1]: 73.3% | IC50 [3]: 9.99 µM | inhibition of growth at 5 µM [2]: 35.1% | IC50 [4]: 22.4 µM

COc1cccc2c1C=[N+](c1ccc(F)cc1)CC2
inhibition of growth at 20 µM [1]: 53% | IC50 [3]: 21 µM | inhibition of growth at 5 µM [2]: 40.2% | IC50 [4]: 23.8 µM

COc1cccc2c1C=[N+](c1cccc(O)c1)CC2
inhibition of growth at 20 µM [1]: 24.5% | inhibition of growth at 5 µM [2]: 24.2%

COc1cccc2c1C=[N+](c1ccc(C(F)(F)F)cc1)CC2
inhibition of growth at 20 µM [1]: 83.4% | IC50 [3]: 7.07 µM | inhibition of growth at 5 µM [2]: 53.3% | IC50 [4]: 2.58 µM

COc1cccc2c1C=[N+](c1ccccc1C(F)(F)F)CC2
inhibition of growth at 20 µM [1]: 85% | IC50 [3]: 2.92 µM | inhibition of growth at 5 µM [2]: 59.3% | IC50 [4]: 3.06 µM

COc1cccc2c1C=[N+](c1ccc(Cl)cc1Cl)CC2
inhibition of growth at 20 µM [1]: 88.2% | IC50 [3]: 3.55 µM | inhibition of growth at 5 µM [2]: 54.7% | IC50 [4]: 1.99 µM

Oc1cccc2c1C=[N+](c1ccccc1I)CC2
inhibition of growth at 20 µM [1]: 30.9% | inhibition of growth at 5 µM [2]: 22.9%

COc1cccc2c1C=[N+](c1ccccc1C)CC2
inhibition of growth at 20 µM [1]: 30.5% | inhibition of growth at 5 µM [2]: 3.4%

COc1cccc2c1C=[N+](c1cccc(I)c1)CC2
IC50 at 48 h [5]: 4.57 µM | inhibition of growth at 20 µM [1]: 73% | IC50 [3]: 11.4 µM | inhibition of growth at 5 µM [2]: 45.3% | IC50 at 48 h [6]: 2.67 µM | IC50 [4]: 1.67 µM

Ic1ccccc1[N+]1=Cc2c(cccc2OCc2ccccc2)CC1
inhibition of growth at 20 µM [1]: 91.5% | IC50 [3]: 1.99 µM | inhibition of growth at 5 µM [2]: 78.2% | IC50 [4]: 2.65 µM

COc1cccc2c1C=[N+](c1ccc(I)cc1F)CC2
inhibition of growth at 20 µM [1]: 89% | IC50 [3]: 7.98 µM | inhibition of growth at 5 µM [2]: 54.8% | IC50 [4]: 3.64 µM

COc1cccc2c1C=[N+](c1ccccc1Cl)CC2
inhibition of growth at 20 µM [1]: 84% | IC50 [3]: 7.21 µM | inhibition of growth at 5 µM [2]: 47.6% | IC50 [4]: 9.29 µM

COc1cccc([N+]2=Cc3c(cccc3OC)CC2)c1
inhibition of growth at 20 µM [1]: 66.2% | IC50 [3]: 15.1 µM | inhibition of growth at 5 µM [2]: 22.8% | IC50 [4]: 22.8 µM

CC(=O)Oc1cccc2c1C=[N+](c1ccccc1I)CC2
inhibition of growth at 20 µM [1]: 3.4% | inhibition of growth at 5 µM [2]: 15%

COc1cccc2c1C=[N+](c1cccc(C)c1)CC2
inhibition of growth at 20 µM [1]: 79.6% | IC50 [3]: 8.57 µM | inhibition of growth at 5 µM [2]: 3.1%

COc1cccc2c1C=[N+](c1c(F)cccc1F)CC2
inhibition of growth at 20 µM [1]: 80.5% | IC50 [3]: 8.43 µM | inhibition of growth at 5 µM [2]: 48.9% | IC50 [4]: 3.9 µM

COc1cccc2c1C=[N+](c1cccc(F)c1)CC2
inhibition of growth at 20 µM [1]: 80.6% | IC50 [3]: 11.3 µM | inhibition of growth at 5 µM [2]: 37.6% | IC50 [4]: 18.8 µM

COc1ccc([N+]2=Cc3c(cccc3OC)CC2)cc1
inhibition of growth at 20 µM [1]: 0.7% | inhibition of growth at 5 µM [2]: 6.6%

COc1cccc2c1C=[N+](c1ccc(C)cc1)CC2
inhibition of growth at 20 µM [1]: 4.7% | inhibition of growth at 5 µM [2]: 17.7%

COc1cccc2c1C=[N+](c1ccc(Br)cc1)CC2
inhibition of growth at 20 µM [1]: 96.8% | IC50 [3]: 11 µM | inhibition of growth at 5 µM [2]: 59.4% | IC50 [4]: 6.12 µM

COc1cccc2c1C=[N+](c1cc(Cl)cc(Cl)c1)CC2
inhibition of growth at 20 µM [1]: 86.4% | IC50 [3]: 3.61 µM | inhibition of growth at 5 µM [2]: 55.8% | IC50 [4]: 2.65 µM

COc1cccc2c1C=[N+](c1cccc([N+](=O)[O-])c1)CC2
inhibition of growth at 20 µM [1]: 67.1% | IC50 [3]: 13.7 µM | inhibition of growth at 5 µM [2]: 40.3% | IC50 [4]: 2.83 µM

COc1cccc2c1C=[N+](c1ccccc1C#N)CC2
inhibition of growth at 20 µM [1]: 51.1% | IC50 [3]: 4.61 µM | inhibition of growth at 5 µM [2]: 30.4% | IC50 [4]: 6.97 µM

COc1cccc2c1C=[N+](c1cccc(C#N)c1)CC2
inhibition of growth at 20 µM [1]: 83.4% | IC50 [3]: 7.13 µM | inhibition of growth at 5 µM [2]: 39.6% | IC50 [4]: 3.66 µM

COc1cccc2c1C=[N+](c1ccccc1O)CC2
inhibition of growth at 20 µM [1]: 8.4% | inhibition of growth at 5 µM [2]: 0.6%

COc1cccc2c1C=[N+](c1cccc(C(F)(F)F)c1)CC2
inhibition of growth at 20 µM [1]: 78.3% | IC50 [3]: 2.03 µM | inhibition of growth at 5 µM [2]: 47.9% | IC50 [4]: 9.61 µM

COc1cccc2c1C=[N+](c1ccccc1)CC2
inhibition of growth at 20 µM [1]: 14.4% | inhibition of growth at 5 µM [2]: 20.5%

COc1cccc2c1C=[N+](c1ccc(O)cc1)CC2
inhibition of growth at 20 µM [1]: 5.4% | inhibition of growth at 5 µM [2]: 4.7%

COc1cccc2c1C=[N+](c1ccc(I)cc1)CC2
inhibition of growth at 20 µM [1]: 71.1% | IC50 [3]: 4.26 µM | inhibition of growth at 5 µM [2]: 51.8% | IC50 [4]: 8.59 µM

COc1cccc2c1C=[N+](c1cccc(Br)c1)CC2
inhibition of growth at 20 µM [1]: 87.4% | IC50 [3]: 10.5 µM | inhibition of growth at 5 µM [2]: 46.6% | IC50 [4]: 4.62 µM

C[n+]1cc2c3c(ccc2c2ccc4cc5c(cc4c21)OCO5)OCO3 [SANGUINARIUM]
inhibition of growth at 20 µM [1]: 92.3% | IC50 [3]: 1.51 µM | inhibition of growth at 5 µM [2]: 88.5% | IC50 [4]: 0.53 µM

COc1cccc2c1C=[N+](c1ccc(Br)cc1Br)CC2
inhibition of growth at 20 µM [1]: 51.9% | IC50 [3]: 4.53 µM | inhibition of growth at 5 µM [2]: 61.4% | IC50 [4]: 2.46 µM

CCOc1cccc2c1C=[N+](c1ccccc1I)CC2
inhibition of growth at 20 µM [1]: 82.2% | inhibition of growth at 5 µM [2]: 49.7%

COc1cccc2c1C=[N+](c1ccccc1[N+](=O)[O-])CC2
inhibition of growth at 20 µM [1]: 3% | inhibition of growth at 5 µM [2]: 10.5%

COc1ccc2c(c[n+](C)c3c4cc5c(cc4ccc23)OCO5)c1OC [CHELERYTHRINE]
inhibition of growth at 20 µM [1]: 92.7% | IC50 [3]: 12.7 µM | inhibition of growth at 5 µM [2]: 88.4% | IC50 [4]: 1.49 µM

COc1cccc2c1C=[N+](c1ccccc1Br)CC2
inhibition of growth at 20 µM [1]: 86.8% | IC50 [3]: 6.89 µM | inhibition of growth at 5 µM [2]: 48.6% | IC50 [4]: 5.3 µM

COc1cccc2c1C=[N+](c1ccc(C#N)cc1)CC2
inhibition of growth at 20 µM [1]: 81.2% | IC50 [3]: 3.56 µM | inhibition of growth at 5 µM [2]: 36.4% | IC50 [4]: 3.49 µM

COc1ccccc1[N+]1=Cc2c(cccc2OC)CC1
inhibition of growth at 20 µM [1]: 15% | inhibition of growth at 5 µM [2]: 2.1%

COc1cccc2c1C=[N+](c1ccc(Br)cc1F)CC2
inhibition of growth at 20 µM [1]: 69.2% | IC50 [3]: 6.95 µM | inhibition of growth at 5 µM [2]: 56.9% | IC50 [4]: 3.62 µM
